Measured values reported in ChEMBL document CHEMBL1201862, “PubChem BioAssay data set” (2004).
The source made the active and inactive calls. Cut-off read from the data, not from the text of the source, for most assays here: actives have a measured EC50 and inactives only a lower limit.

Experiments:
[1] = HIV-1 AD8 envelope cell-cell fusion blockers – cherry-pick, dose response (AID 652062); assay type: functional, cell-based;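 note: luciferase signal from cell-cell fusion driven by HIV-1 clade B AD8 Env; potency is for inhibitors of fusion seen as a drop in luminescence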
[2] = biological target: T1, Heat shock factor protein 1 (Mus musculus, UniProt P38532); assay: decrease of HSF1-responsive luciferase luminescence – cell-based, NIH3T3, dose retest, confirmation (AID 2382); assay type: functional;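 note: NIH3T3 fibroblasts with HSF1-driven luciferase reporter stressed by proteasome inhibitor MG132; luminescence from HSF1-driven luciferase expression after 8 hours of MG132 stress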
T1 sequence (P38532 whole entry): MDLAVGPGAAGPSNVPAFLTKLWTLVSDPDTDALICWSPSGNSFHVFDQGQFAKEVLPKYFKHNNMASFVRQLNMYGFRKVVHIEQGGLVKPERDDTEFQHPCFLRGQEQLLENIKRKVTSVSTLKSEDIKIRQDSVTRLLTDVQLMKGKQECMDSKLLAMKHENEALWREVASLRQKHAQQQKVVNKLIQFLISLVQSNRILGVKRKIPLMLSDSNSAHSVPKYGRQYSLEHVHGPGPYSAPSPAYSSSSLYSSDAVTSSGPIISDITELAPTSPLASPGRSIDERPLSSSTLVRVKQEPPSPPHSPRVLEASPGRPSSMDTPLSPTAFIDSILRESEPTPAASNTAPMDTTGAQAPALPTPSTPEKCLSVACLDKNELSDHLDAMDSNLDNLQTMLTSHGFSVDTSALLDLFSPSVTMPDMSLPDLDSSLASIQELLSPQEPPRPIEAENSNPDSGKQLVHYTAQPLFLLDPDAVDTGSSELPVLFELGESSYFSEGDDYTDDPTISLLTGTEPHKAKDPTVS

Protein skinhead-1 = biological target: T2, Protein skinhead-1 (Caenorhabditis elegans, UniProt P34707); assay type: functional
T2 sequence (P34707 whole entry): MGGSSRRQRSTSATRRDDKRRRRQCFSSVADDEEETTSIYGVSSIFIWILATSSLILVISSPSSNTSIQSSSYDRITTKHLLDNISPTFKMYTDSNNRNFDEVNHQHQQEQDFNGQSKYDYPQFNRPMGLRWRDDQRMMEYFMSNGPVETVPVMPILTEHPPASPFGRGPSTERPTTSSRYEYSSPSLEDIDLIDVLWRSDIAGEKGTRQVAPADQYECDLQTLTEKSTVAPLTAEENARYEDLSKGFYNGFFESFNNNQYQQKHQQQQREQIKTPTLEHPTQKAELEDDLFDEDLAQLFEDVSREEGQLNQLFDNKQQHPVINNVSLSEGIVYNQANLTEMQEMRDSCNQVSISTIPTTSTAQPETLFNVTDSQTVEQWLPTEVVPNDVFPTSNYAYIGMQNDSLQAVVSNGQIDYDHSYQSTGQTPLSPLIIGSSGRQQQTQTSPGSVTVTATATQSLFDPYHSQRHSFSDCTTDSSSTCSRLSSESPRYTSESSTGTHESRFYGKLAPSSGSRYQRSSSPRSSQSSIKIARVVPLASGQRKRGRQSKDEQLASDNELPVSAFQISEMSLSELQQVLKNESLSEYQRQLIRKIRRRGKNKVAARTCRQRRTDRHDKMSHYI

[3] = test system: Streptococcus sp. 'group A'; assay: Streptococcus pyogenes SK(-)GAS viability under kanamycin – luminescence, BacTiterGlo, confirmation, counter-screen for streptokinase expression inhibitor project, dose response (AID 1900); assay type: functional, organism-based
Streptokinase A = biological target: T3, Streptokinase A (Streptococcus pyogenes serotype M1, UniProt P10520); assay: viability-normalized secreted streptokinase activity reduction – plasminogen activation absorbance, OD405, dose response (AID 1914); assay type: functional, Streptococcus pyogenes M1 GAS;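 note: secreted streptokinase activity via plasminogen activation per viability signal from cell pellet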
T3 sequence (P10520 whole entry): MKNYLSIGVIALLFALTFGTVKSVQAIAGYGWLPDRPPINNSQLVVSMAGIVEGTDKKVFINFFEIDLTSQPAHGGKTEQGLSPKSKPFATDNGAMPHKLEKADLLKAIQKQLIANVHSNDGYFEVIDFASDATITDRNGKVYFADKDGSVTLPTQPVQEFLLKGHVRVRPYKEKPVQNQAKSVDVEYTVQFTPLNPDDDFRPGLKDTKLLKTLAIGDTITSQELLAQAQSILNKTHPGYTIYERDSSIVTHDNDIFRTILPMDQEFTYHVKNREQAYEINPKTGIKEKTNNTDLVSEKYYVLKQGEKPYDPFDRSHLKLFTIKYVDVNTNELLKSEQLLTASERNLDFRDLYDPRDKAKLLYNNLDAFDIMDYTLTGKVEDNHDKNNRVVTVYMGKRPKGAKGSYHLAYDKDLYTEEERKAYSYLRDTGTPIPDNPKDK

[4] = Luminescence Cell-Based Dose Retest to Confirm Inhibitors of Cancer Stem Cells. [Related pubchem assays (depositor defined):AID2717, AID2721]; assay type: functional; conditions: Homo sapiens
[5] = biological target: T4, Calpain-2 catalytic subunit (Sus scrofa, UniProt P43367); assay: m-calpain protease blockers, concentration series – biochemical, fluorogenic peptide substrate, dose response (AID 1420); assay type: functional
T4 sequence (P43367 whole entry): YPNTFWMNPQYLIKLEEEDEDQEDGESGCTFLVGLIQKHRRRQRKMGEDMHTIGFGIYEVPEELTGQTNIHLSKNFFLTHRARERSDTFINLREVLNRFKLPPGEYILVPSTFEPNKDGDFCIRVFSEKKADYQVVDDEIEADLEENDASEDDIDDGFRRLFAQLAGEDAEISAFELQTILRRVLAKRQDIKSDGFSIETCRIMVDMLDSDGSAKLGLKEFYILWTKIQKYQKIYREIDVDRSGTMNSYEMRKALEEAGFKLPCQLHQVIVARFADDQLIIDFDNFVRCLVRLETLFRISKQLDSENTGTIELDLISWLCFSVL

Streptococcus = assay: GAS UMAA2166 growth inhibition – luminescence, BacTiterGlo, counter-screen for streptokinase expression inhibitor project, dose response (AID 1915); assay type: functional, organism-based;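 note: potency for reduction of bacterial viability or growth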
[6] = P. falciparum Dd2 growth inhibitors, dose response, SYBR Green, cherry-picked samples (AID 1159567); assay type: functional, cell-based
H4 = assay: Luminescence Cell-Based Dose Response HTS to Identify Activators of 5'UTR Stem-Loop Driven Prion Protein mRNA Translation in H4 Neuroglioblastoma Cells. [Related pubchem assays: 1829 (Project Summary), 1814 (Primary HTS)]; assay type: functional; conditions: Homo sapiens
[7] = Luminescence Cell-Based Dose Response HTS to Identify Activators of Luciferase Translation or Activity in H4 […] Cells. [Related pubchem assays: 1829 (Project Summary), 1814 (Primary HTS)]; assay type: functional
[8] = Luminescence Cell-Based Dose Confirmation HTS to Identify Activators of 5'UTR Stem-Loop Driven Alpha-Synuclein mRNA Translation in H4 Neuroglioblastoma Cells. [Related pubchem assays: 1829 (Project Summary), 1814 (Primary HTS)]; assay type: functional

O=C(C[C@H]1C[C@@H]2c3cc(NC(=O)C4CCOCC4)ccc3O[C@@H]2[C@H](CO)O1)NCc1ccccc1
AC50 [1]: 2.09 µM (active)

CCN(CC)C(=O)c1ccc(-c2ccccc2)cc1
EC50 [2]: > 195 µM (not active)

Cc1ccc(N(CC(=O)NCC2CCCO2)S(=O)(=O)c2ccc(Cl)cc2)cc1C (stereo not drawn)
IC50 (Protein skinhead-1): > 100 µM (inactive)

Fc1ccc(CSc2nc3ccccc3[nH]2)c2ccccc12
EC50 [3]: 8.67 µM (active) | EC50 (Streptokinase A): 14.1 µM (active) | AC50 [4]: 5.37 µM (active) | IC50 [5]: 2.61 µM (not active) | EC50 (Streptococcus): 13.9 µM (active)

CC(CCc1ccccc1)NC(=O)CSc1cccc[n+]1[O-] (stereo not drawn)
IC50 [5]: 44.7 µM (not active)

CCOC(=O)N1CCc2c(sc3c2c(=O)n(Cc2ccccc2)c(=O)n3CC(=O)NCCOC)C1
IC50 [5]: 7.05 µM (not active)

N#C[C@@H]1[C@H](c2ccccc2-c2cccc(F)c2)[C@H](CO)N1C(=O)C1CC1
AC50 [6]: 3.48 µM (active)

COc1cc(C(=O)OCC(=O)c2c(N)n(C)c(=O)n(C)c2=O)ccc1OCCC(C)C
EC50 [3]: 12.7 µM (active) | EC50 (Streptokinase A): > 150 µM (not active) | EC50 (Streptococcus): > 150 µM (not active)

CCc1ccccc1NC(=O)c1ccc(NS(C)(=O)=O)cc1
EC50 [2]: > 195 µM (not active)

N#C/C(=C\c1ccco1)Sc1nc2ccccc2s1
EC50 (H4): 25.6 µM (active) | EC50 [7]: 11.8 µM (active) | EC50 [8]: 13.9 µM (active) | IC50 (Protein skinhead-1): > 100 µM (inactive)

Cc1ccccc1N=C(S)N(CCc1c(C)[nH]c2ccc(F)cc12)Cc1cccnc1
IC50 [5]: > 50 µM (not active)

CCCCSc1nnc(-c2ccc(C)cc2)c2ccccc12
IC50 [5]: 5.25 µM (not active)

CC(=O)c1cn(CC(=O)Nc2ccccc2C)c2ccccc12
EC50 [2]: > 195 µM (not active)

CSc1ccc(CN(C)CC(=O)Nc2c(F)cccc2F)cc1
IC50 [5]: 2.25 µM (not active)

O=C1CC(C(=O)Nc2ccc(Cl)cc2)n2ncnc2N1 (stereo not drawn)
IC50 [5]: < 0.4 µM (not active)

CC(C)c1ccc(-n2cccc2/C=C2/C(=N)N3C=CSC3=NC2=O)cc1
EC50 [3]: 2.1 µM (active) | EC50 (Streptokinase A): > 150 µM (not active) | EC50 (Streptococcus): 14.7 µM (active)

CN1c2ccc(C#Cc3cccnc3)cc2[C@@H]2[C@@H](CCN2C(=O)C2CCC2)[C@@H]1CO
AC50 [6]: 4.18 µM (active)

CCC(=O)N1CCC2(CC1)CN(Cc1ccc3c(c1)OCO3)[C@@H](CO)c1c2c2ccc(OC)cc2n1C
AC50 [6]: 4.05 µM (active)

C=CCn1c(N2C(=O)CC(Cc3ccccc3)C2=O)nc2ccccc21 (stereo not drawn)
EC50 [3]: 9.02 µM (active) | EC50 (Streptokinase A): > 150 µM (not active) | EC50 (Streptococcus): > 150 µM (not active)

CCn1c(S(=O)(=O)O)nc2ccccc21
EC50 [2]: > 195 µM (not active)
